# Experimental data from patent US20260026529A1, “MATERIALS AND METHODS FOR THE MANUFACTURE OF AN ANIMAL FEED” (In the Bowl Animal Health, Inc., priority 2023, published 2026).
# Where a name gives a salt, the structure may show the parent alone. Marks after values point to notes of the source that are not given here.
# How the values were obtained:
# [1] = Solubility of active ingredients in liquid carriers, transmissivity measurement with a crystallizer multi-reactor
# Excerpt: To determine the solubility of various active ingredients that could be incorporated into pet food, each active ingredient may be evaluated in a temperature dependent manner using a crystallizer multi-reactor with transmissivity measurements.
# Carrier of interest may be prepared as needed and specific active ingredients may be added to the solvents to form mixtures of the solvent and active. […] If mixing and/or heating fails to provide visual evidence that an active ingredient dissolves in the test solvent carrier no further solubility testing of the active ingredient with the test carrier can be conducted.
# For active ingredients that appear to at least partially dissolve in a given carrier, the mixtures can be analyzed by transmissivity measurement using a crystallizer multi-reactor. Prior to the transmissivity measurement using a crystallizer multi-reactor with transmissivity capability, carriers may be prepared, as needed, and subsequently tested using a heating cycle over a range of temperatures. The transmissivity data can be recorded over the temperature ranges and used as a blank or reference in subsequent transmissivity measurements.
# Typically, initial samples including the active ingredient of interest and the test carrier are not readily soluble at room temperature and may register low percent transmissivity along with visible observations of insolubilized material. When resulting admixtures are heated at a specific heating rate, the percent transmissivity increases as the active ingredient is solubilized. When the solids are completely dissolved, the transmissivity is measured as 100%. When the resulting heated admixture is subsequently cooled, solids may precipitate at a given temperature and cooling rate, which results in a decrease in percent transmissivity. The temperature and time at which precipitation occurs with a specific admixture provides additional information regarding solubility and the combination of parameters needed for selection to prepare feed with the active ingredient of interest.
# Carriers include, refined chicken fat, refined chicken fat including lecithin, refined chicken fat including Tween80, refined chicken fat including triacetin, and triacetin may be used as carrier systems over a range of temperatures, ramp rates, stirring rates, and cooling cycles to evaluate stability.
# Admixture experiments may be performed with active ingredients including, e.g., mivorilaner, sarolaner, lotilaner, fluralaner, afoxolaner, spinosad, pyrantel, praziquantel, fenbendazole, diethylcarbamazine, moxidectin, gabapentin and metformin in combination with different test carriers using the methodology described herein. “Apparent solubility” is a term used herein to denote that the admixture may be a true solution, i.e., an admixture in which the active ingredient completely dissolves into the carrier liquid. However, the term “apparent solubility” also can include suspensions and emulsions, for example, which resemble a true solution but are not.
# [2] = Solubility of mivorilaner in carriers under isothermal conditions; format: physicochemical
# Procedure: The solubility of mivorilaner in a number of carriers was also measured under isothermal conditions.
Compound,"Time to Achieve Apparent Solubility ([1]; carrier Chicken Fat + Tween 80, 2.0 mg/g, 40 ° C.)","Effect of the presence of lecithin on solubility ([1]; chicken fat vs chicken fat including 4% (w/w) lecithin, 2-16 mg/g, 0.1° C./minute, 39° C. to 60° C., FIG. 5)",Solubility in a combination of chicken fat and lecithin ([2]; chicken fat and lecithin),"Solubility observation, chicken fat only ([2]; chicken fat only, all experiments)","Measured Concentration ([1]; carrier CF, Up to 60 ° C.)","Time to Achieve Apparent Solubility ([1]; carrier CF, Up to 60 ° C.)","Measured Concentration ([1]; carrier Triacetin, 20-22 ° C.)"
O=C(CNC(=O)c1sc(C2=NO[C@@](c3cc(Cl)c(F)c(Cl)c3)(C(F)(F)F)C2)c2c1CCC2)NCC(F)F [Mivorilaner],1.5** hours,increased mivorilaner solubility,soluble over a wide range of concentrations and temperatures,visible detection of agglomerates was noted in all experiments,,,
NCC1(CC(=O)O)CCCCC1 [Gabapentin],,,,,0 mg/g,Insoluble,<1 mg/g
"CN(C)C(=N)N=C(N)N [Metformin-HCI, Metformin HCl]",,,,,0 mg/g,,<1 mg/g
